# Measured values published in US6878388B1, “Vanadium compounds for treating proliferative cell disorders” (Parker Hughes Institute, priority 2000, dated 2005).
# Experiments:
# [1] = system: U373 human glioblastoma cells; assay: MTT cytotoxicity assay, U373; format: cell-based; conditions: 48 h incubation, 3 independent experiments, read-out: IC50 (mean ± SE)
# Protocol: Human brain tumor cells lines U87 MG (Cat.# HTB-14), U118 MG (Cat. # HTB-15), U138 (Cat # HTB-16), U373 MG (CAT. # HTB-17), and T98G (Cat. # CRL-1690) and breast cancer cell lines BT-20 (Cat # HTB-19), MDA-MB-231 (Cat # HTB-26), MDA-MB-361 (Cat # HTB-27), and MCF-7 (Cat # HTB-22) were obtained from American Type Culture Collection (ATCC, Rockville, Md.) and maintained as continuous cell lines in Dulbecco's modified Eagles's medium (U87, U118, U138, U373, T98 and BT-20) or Leibovitz's L-15 medium (MDA-MB-231 and MDA-MB-361). All media were supplemented with 10% fetal calf serum (FCS), 4 mM glutamine, 100 U/ml penicillin G and […] streptomycin sulfate. All tissue culture reagents were obtained from Life Technologies Inc. (GIBCO-BRL, Gaithersburg, Md.).
# The cytotoxicity of [VO(SO4)(Me2-Phen)2] against human cancer cell lines was analyzed using the MTT (3-[4,5-dimethylthiazol-2-yl]-2,5-diphenyl tetrazolium bromide) assay (Boehringer Mannheim Corp., Indianapolis, Ind.) as described previously (Narla et al., Clin Cancer Res., 4: 1405-1414, 1998). […] The absorbance at 540 nm (a reference wavelength of 690 nm was used) of the solution in each well was measured using a microplate reader (Labsystems). The percent survival and the IC50 values were calculated using Graphpad Prism v2.0 (Graphpad Software, Inc., San Diego, Calif.) as described previously (Narla et al., Supra). […]
# MDA-MB-231 cells = assay: In vitro invasion assay, Matrigel-coated Boyden chambers, MDA-MB-231; format: cell-based, human; conditions: 24 h preincubation, 3 experiments, read-out: Mean IC50 inhibition of invasion through Matrigel matrix
# Protocol: Tumor invasion of the basement membrane is a crucial step in the complex multistage process that leads to metastatic spread. Tumor cells cross the basement membrane as they initially invade the lymphatic or vascular beds during dissemination and as they penetrate their target tissues. […]
# Invasion of cancer cells treated with [VO(SO4)(Me2-Phen)2] was assayed using Matrigel-coated Costar 24-well transwell cell culture chambers (“Boyden chambers”) with 8.0-μm-pore polycarbonate filter inserts as described previously (Narla et al., Clin Cancer Res, 4: 2463-2471, 1998; Ghosh et al., Anticancer Drug Des, 14: 403-410, 1999; Albini et al., J Cell Biol, 105: 1867-1872, 1987). […] The cells were trypsinized, washed twice with serum-free medium containing BSA, counted and resuspended in a serum-free medium at 1×10^5 cells/ml. […] The invasive cells that migrated to the lower side of the filter were fixed, stained with Hema-3 solution and counted under a light microscope. Five to 10 random fields per filter were counted to determine the invasive fraction. The invasive fractions of cells treated with [VO(SO4)(Me2-Phen)2] were compared to those of DMSO-treated control cells and the percent inhibition of invasiveness was determined. […]
# [2] = system: MDA-MB-231 breast cancer cells; assay: In situ detection of apoptosis (TdT-mediated dUTP nick-end labeling), MDA-MB-231; format: cell-based, human; conditions: MDA-MB-231 cells, dUTP-FITC labeling; read-out: apoptotic EC50
# Protocol: Apoptosis was detected using an in situ cell death detection kit (Boehringer Mannheim Corp., Indianapolis, Ind.) as described previously (Albini et al., J. Cell Biol., 105: 1867-1872, 1987; Huang et al., J Biol Chem., 272: 2927-2935, 1997). Cells were incubated with [VO(SO4)(Me2-Phen)2] for 48 hours at 37° C., fixed, permeabilized, incubated with the reaction mixture containing terminal deoxynucleotidyl transferase (TdT) and fluorescein isothiocyanate (FITC)-conjugated dUTP and counterstained with propidium iodide. Cells were transferred to slides and viewed with confocal laser scanning microscope (Bio-Rad MRC 1024) mounted on a Nikon Eclipse E800 series upright microscope as previously reported (Narla et al., Supra).
# Administration of [VO(SO4)(Me2-Phen)2] to cells induced apoptotic or programmed cell death as determined using the TdT-mediated dUTP nick-end labeling of exposed 3′-OH termini of DNA with dUTP-FITC.
structure (smiles),measurement,setting,value
"Cc1ccnc2c1ccc1c(C)ccnc12.Cc1ccnc2c1ccc1c(C)ccnc12.O=S(=O)([O-])[O-].[O]=[V+2] [[VO(SO4)(Me2-Phen)2], bis(4,7-dimethyl-1,10-phenanthroline) sulfatooxovanadium (IV)]",IC50,[1],2000 ± 400 nM
same,IC50,MDA-MB-231 cells,600 ± 300 nM
same,EC50,[2],2100 ± 400 nM
